Assay results published in patent US20070048252A1, “Conjugates of the hydrophilic polymer and the molecules from boxwood extraction, and pharmaceutical compositions of the conjugates” (Beijingn Jenkem Technology CO., Ltd., priority 2003, published 2007).
“Also recorded” adds a separate entry of the source.

Legend:
Kunming strain mice = assay: Acute toxicity study, single IV or IP injection, 14 days observation; format: in vivo
Procedure: (§1) The conjugate obtained from example 8 was used as the testing reagent in the following study, while native Cyclovirobuxine D was used as positive control. Both samples were dissolved in sodium acetate (pH 5.7) before injection.
Kunming strain mice, 50% male and 50% formale, weighing 19-21 g, were randomly divided into 5 groups in the study. (1) native Cyclovirobuxine D, (2) the conjugate of PEG and Cyclovirobuxine D. The mice were fasted 12 hours before the injections. Each mice was given a single injection, and the volume for both IV and IP injection was based on 0.3 ml/10 g formulation. […] After 14 days, the mice still alive were executed and then analyzed.

[1] = system: pituitrin-induced myocardial ischemic injury; assay: Effect on pituitrin-induced myocardial ischemic injury (routine leads ECG: T wave, cardioverter); format: in vivo, SD rats; settings: for effect on the cardioverter, in words: comparison with the controls groups, P>0.05; for inhibition of the rising of T wave by pituitrin-induced, in words: in 15 sec
Procedure: as §1
Methods: 50 normal SD rats of each sex, weighting 180-220 g, were randomly divided into five groups: controls, low dose of native Cyclovirobuxine D (0.25 mg/kg); middle dose of native Cyclovirobuxine D (0.5 mg/kg); low dose of the conjugate of Cyclovirobuxine D (0.25 mg/kg); middle dose of the conjugate of Cyclovirobuxine D (0.5 mg/kg). All rats were fasted before experiment for 12 hours, 1 g/kg urethane was administered by abdominal injection for anesthesia of the rats, and were placed in dorsal recumbency. A needle electrode was inserted into extremity subsurface carefully, examination leads ECG, holding 30 min, records the routine leads ECG The drug was given via vein of […] tail for each groups, after 10 min, 1.5 u/kg pituitrin was injected into dorsal veins of tongue, limited in 10 sec, records the routine leads ECG in 15 s, 30 s, 1, 2, 3, 5, 7, 10, 15 min after injected.

[2] = low dose 0.25 mg/kg iv, 1′ after pituitrin
[3] = low dose 0.25 mg/kg iv, 2′ after pituitrin
[4] = low dose 0.25 mg/kg iv, 3′ after pituitrin
[5] = low dose 0.25 mg/kg iv, 5′ after pituitrin
[6] = low dose 0.25 mg/kg iv, 7′ after pituitrin
[7] = low dose 0.25 mg/kg iv, 10′ after pituitrin
[8] = low dose 0.25 mg/kg iv, 15′ after pituitrin
[9] = low dose 0.25 mg/kg iv, 15″ after pituitrin 1.5 u/kg
[10] = low dose 0.25 mg/kg iv, 30″ after pituitrin
[11] = middle dose 0.5 mg/kg iv, 1′ after pituitrin
[12] = middle dose 0.5 mg/kg iv, 2′ after pituitrin
[13] = middle dose 0.5 mg/kg iv, 3′ after pituitrin
[14] = middle dose 0.5 mg/kg iv, 5′ after pituitrin
[15] = middle dose 0.5 mg/kg iv, 7′ after pituitrin
[16] = middle dose 0.5 mg/kg iv, 10′ after pituitrin
[17] = middle dose 0.5 mg/kg iv, 15′ after pituitrin
[18] = middle dose 0.5 mg/kg iv, 15″ after pituitrin 1.5 u/kg
[19] = middle dose 0.5 mg/kg iv, 30″ after pituitrin
[20] = middle dose 0.5 mg/kg iv, time 0

Compound: α-methoxy-polyethylene-glycol-ω-glu-glu-gly-Cyclovirobuxine D ester [Example 8]
- toxicity compared with native Cyclovirobuxine D, in words (Kunming strain mice; iv and ip administration, from LD50): lower toxicity
- effect on the cardioverter, in words ([1]; listed as the conjugate of Cyclovirobuxine D): no significantly effect; also recorded: no significant effect
- cardioverter (X ± S) [1, 2]: 150 ± 96.44
- rising of T wave (X ± S) [1, 2]: 0.25 ± 0.062
- cardioverter (X ± S) [1, 3]: 180 ± 60.00
- rising of T wave (X ± S) [1, 3]: 0.22 ± 0.102
- cardioverter (X ± S) [1, 4]: 200 ± 56.57
- rising of T wave (X ± S) [1, 4]: 0.28 ± 0.071
- cardioverter (X ± S) [1, 5]: 240 ± 69.28
- rising of T wave (X ± S) [1, 5]: 0.33 ± 0.056
- cardioverter (X ± S) [1, 6]: 260 ± 44.72
- rising of T wave (X ± S) [1, 6]: 0.35 ± 0.067
- cardioverter (X ± S) [1, 7]: 260 ± 44.72
- rising of T wave (X ± S) [1, 7]: 0.32 ± 0.052
- cardioverter (X ± S) [1, 8]: 300 ± 91.65
- rising of T wave (X ± S) [1, 8]: 0.33 ± 0.069
- cardioverter (X ± S) [1, 9]: 270 ± 145.94
- rising of T wave (X ± S) [1, 9]: 0.24 ± 0.059
- cardioverter (X ± S) [1, 10]: 200 ± 128.06
- rising of T wave (X ± S) [1, 10]: 0.17 ± 0.123
- cardioverter (X ± S) ([1]; low dose 0.25 mg/kg iv, time 0): 420 ± 60.00
- rising of T wave (X ± S) ([1]; low dose 0.25 mg/kg iv, time 0): 0.25 ± 0.064
- inhibition of the rising of T wave by pituitrin-induced, in words ([1]; low dose groups, 0.25 mg/kg, vs control groups P<0.01): could inhibit
- cardioverter (X ± S) [1, 11]: 180 ± 60.00
- rising of T wave (X ± S) [1, 11]: 0.28 ± 0.049
- cardioverter (X ± S) [1, 12]: 200 ± 56.57
- rising of T wave (X ± S) [1, 12]: 0.27 ± 0.029
- cardioverter (X ± S) [1, 13]: 240 ± 0.00
- rising of T wave (X ± S) [1, 13]: 0.28 ± 0.029
- cardioverter (X ± S) [1, 14]: 260 ± 44.72
- rising of T wave (X ± S) [1, 14]: 0.31 ± 0.059
- cardioverter (X ± S) [1, 15]: 280 ± 56.57
- rising of T wave (X ± S) [1, 15]: 0.31 ± 0.059
- cardioverter (X ± S) [1, 16]: 280 ± 56.57
- rising of T wave (X ± S) [1, 16]: 0.30 ± 0.065
- cardioverter (X ± S) [1, 17]: 280 ± 56.57
- rising of T wave (X ± S) [1, 17]: 0.33 ± 0.072
- cardioverter (X ± S) [1, 18]: 340 ± 44.72
- rising of T wave (X ± S) [1, 18]: 0.33 ± 0.123
- cardioverter (X ± S) [1, 19]: 260 ± 107.70
- rising of T wave (X ± S) [1, 19]: 0.22 ± 0.107
- cardioverter (X ± S) [1, 20]: 420 ± 60.00
- rising of T wave (X ± S) [1, 20]: 0.23 ± 0.046

Compound: CN[C@@H](C)[C@H]1[C@H](O)C[C@@]2(C)[C@@H]3CC[C@H]4C(C)(C)[C@@H](NC)CC[C@@]45C[C@@]35CC[C@]12C [native Cyclovirobuxine D, Cyclovirobuxine D]
- LD50 in IP injection (Kunming strain mice; Kunming mice, single IP injection, 14 days observation): 97.52 mg/kg
- LD50 in IV injection (Kunming strain mice; Kunming mice, single IV injection, 14 days observation): 11.77 mg/kg
- effect on the cardioverter, in words [1]: no significantly effect
- effect on the cardioverter, in words ([1]; listed as Native Cyclovirobuxine D): no significant effect
- cardioverter (X ± S) [1, 2]: 228.3 ± 44.41
- rising of T wave (X ± S) [1, 2]: 0.22 ± 0.08
- cardioverter (X ± S) [1, 3]: 250.3 ± 29.14
- rising of T wave (X ± S) [1, 3]: 0.18 ± 0.065
- cardioverter (X ± S) [1, 4]: 267.6 ± 44.71
- rising of T wave (X ± S) [1, 4]: 0.21 ± 0.072
- cardioverter (X ± S) [1, 5]: 266.4 ± 30.09
- rising of T wave (X ± S) [1, 5]: 0.22 ± 0.081
- cardioverter (X ± S) [1, 6]: 270.6 ± 30.52
- rising of T wave (X ± S) [1, 6]: 0.21 ± 0.076
- cardioverter (X ± S) [1, 7]: 289.8 ± 43.91
- rising of T wave (X ± S) [1, 7]: 0.23 ± 0.075
- cardioverter (X ± S) [1, 8]: 315.0 ± 63.39
- rising of T wave (X ± S) [1, 8]: 0.24 ± 0.081
- cardioverter (X ± S) [1, 9]: 351.6 ± 90.78
- rising of T wave (X ± S) [1, 9]: 0.50 ± 0.092
- cardioverter (X ± S) [1, 10]: 202.9 ± 42.85
- rising of T wave (X ± S) [1, 10]: 0.23 ± 0.061
- cardioverter (X ± S) ([1]; low dose 0.25 mg/kg iv, time 0): 392.4 ± 48.11
- rising of T wave (X ± S) ([1]; low dose 0.25 mg/kg iv, time 0): 0.20 ± 0.040
- cardioverter (X ± S) [1, 11]: 196.2 ± 52.90
- rising of T wave (X ± S) [1, 11]: 0.23 ± 0.068
- cardioverter (X ± S) [1, 12]: 215.4 ± 45.47
- rising of T wave (X ± S) [1, 12]: 0.23 ± 0.051
- cardioverter (X ± S) [1, 13]: 236.7 ± 47.92
- rising of T wave (X ± S) [1, 13]: 0.23 ± 0.047
- cardioverter (X ± S) [1, 14]: 256.6 ± 51.26
- rising of T wave (X ± S) [1, 14]: 0.24 ± 0.040
- cardioverter (X ± S) [1, 15]: 268.6 ± 53.15
- rising of T wave (X ± S) [1, 15]: 0.25 ± 0.048
- cardioverter (X ± S) [1, 16]: 260.8 ± 93.87
- rising of T wave (X ± S) [1, 16]: 0.27 ± 0.044
- cardioverter (X ± S) [1, 17]: 297.6 ± 41.30
- rising of T wave (X ± S) [1, 17]: 0.26 ± 0.040
- cardioverter (X ± S) [1, 18]: 331.1 ± 41.18
- rising of T wave (X ± S) [1, 18]: 0.34 ± 0.119
- cardioverter (X ± S) [1, 19]: 234.5 ± 85.06
- rising of T wave (X ± S) [1, 19]: 0.19 ± 0.116
- cardioverter (X ± S) [1, 20]: 389.6 ± 46.56
- rising of T wave (X ± S) [1, 20]: 0.21 ± 0.052
- inhibition of the rising of T wave by pituitrin-induced, in words ([1]; middle dose groups, 0.5 mg/kg, vs control group P<0.01): could inhibit
